In ChEMBL document CHEMBL4184087, “Synthesis, optical properties and cytotoxicity of meso-heteroatom substituted IR-786 analogs” (Bioorg Med Chem Lett, 2018):

Experiments:
PC-3 = test: Antiproliferative activity against human PC3 cells after 48 hrs by MTT assay; assay type: functional, cell-based; settings: PC-3, 48 h
[1] = Stability of the compound in anhydrous methanol solution under dark condition after 24 hrs by UV-vis spectroscopic analysis
[2] = Photostability of the compound in anhydrous methanol solution under UV irradiation of 15 W after 24 hrs by UV-vis spectroscopic analysis

Row | Compound | IC50 (PC-3) [µM] | Stability [1] | Stability [2]
1 | CN(CCO)C1=C(/C=C/C2=[N+](C)c3ccccc3C2(C)C)CCC/C1=C\C=C1\N(C)c2ccccc2C1(C)C | 9.23 | – | –
2 | CN(C)CCSC1=C(/C=C/C2=[N+](C)c3ccccc3C2(C)C)CCC/C1=C\C=C1\N(C)c2ccccc2C1(C)C | 6.04 | – | –
3 | CCN(CCO)C1=C(/C=C/C2=[N+](C)c3ccccc3C2(C)C)CCC/C1=C\C=C1\N(C)c2ccccc2C1(C)C | 9.08 | – | –
4 | COc1cccc2c1C(=O)c1c(O)c3c(c(O)c1C2=O)C[C@@](O)(C(=O)CO)C[C@@H]3O[C@H]1C[C@H](N)[C@H](O)[C@H](C)O1 [DOXORUBICIN] | 2.6 | – | –

Continued by falling IC50 (PC-3), values first:

Row | IC50 (PC-3) [µM] | Stability [1] | Stability [2] | Compound
5 | 13.2 | – | – | CN(C)CCNC1=C(/C=C/C2=[N+](C)c3ccccc3C2(C)C)CCC/C1=C\C=C1\N(C)c2ccccc2C1(C)C
6 | 12.5 | Stable | Stable | CN1/C(=C/C=C2\CCCC(/C=C/C3=[N+](C)c4ccccc4C3(C)C)=C2Sc2ccncc2)C(C)(C)c2ccccc21.[I-]
7 | 9.33 | – | – | CN1/C(=C/C=C2\CCCC(/C=C/C3=[N+](C)c4ccccc4C3(C)C)=C2N2CCC(CO)CC2)C(C)(C)c2ccccc21
8 | 5.22 | Stable | Stable | CN1/C(=C/C=C2\CCCC(/C=C/C3=[N+](C)c4ccccc4C3(C)C)=C2Oc2ccncc2)C(C)(C)c2ccccc21.[I-]
9 | 4.73 | Stable | Stable | CN1/C(=C/C=C2\CCCC(/C=C/C3=[N+](C)c4ccccc4C3(C)C)=C2NCCO)C(C)(C)c2ccccc21.[I-]
